Data on three compounds can be found in paper PMC9867347, “An Acid-Sensitive Bone Targeting Delivery System Carrying Acacetin Prevents Osteoporosis in Ovariectomized Mice” (Pharmaceuticals, 2022).

Ends that are not written are not given here.

One data set concerns LC3II. The data set can be described thus: Western blotting, LC3II (autophagy). The note with it: BMMs, RANKL and M-CSF, 6 h. The format is cell-based, C57BL/6J mice. How it is done: (§1) RIPA lysate (50 × protease inhibitor, 50 × phosphatase inhibitor) was used to extract total protein from the cells. Then, 20 μg protein or protein marker per lane (PageRuler ™ (ThermoFisher Scientific, Waltham, MA, USA) Prestained Protein Ladder 10kD-180KD or HiMark™ (ThermoFisher Scientific, Waltham, MA, USA) Pre-stained Protein Standard 31 kd-460 kd) was loaded onto an SDS gel (30% Acrylamide, 1.5 M Tris-HCl, 10% SDS, 10% Ammonium persulfate and TEMED) and subjected to electrophoresis and transferred to a polyvinylidene fluoride membrane. The membrane was blocked with 5% BSA for 4 h and incubated with the specific primary antibody overnight at 4 °C. Then, the membrane was incubated with a secondary antibody (IRDye) for 1 h at room temperature. Bio-Rad ChemiDoc MP imaging system (Bio-Rad Laboratories, Hercules, CA, USA) was used to visualize protein bands and ImageJ software was used to calculate relative protein expression based on grayscale blots.
(§2) Antibodies including p-AKT (Ser473; #4060), AKT (#4691), LC3A/B Antibody (#4108), p-mTOR (Ser2448; #5536), mTOR (#2983), c-Fos (#2250), NFATc1 (#8032), p-PI3K (#4228), PI3K (#4249), and GAPDH (#5174) were purchased from Cell Signalling Technology (Denver, MA, USA).
A general note: A western blot detects proteins with antibodies after separation by electrophoresis.

The conditions of data set [1]: plasma, after intravenous administration; cited from earlier work. The source says: (§3) Osteoporosis following the estrogen withdrawal of menopause is a serious global clinical problem with a significant increase in the risk of fractures. Supplementation of estrogen is not recommended for the long-term treatment of postmenopausal bone loss because of the increased risk of breast cancers and cardiovascular events. Pure compounds isolated from natural products are emerging as potential therapeutics for postmenopausal osteoporosis. Acacetin is a di-hydroxy and mono-methoxy flavone widely distributed in various plants including the Acacia tree, black locust, and ...

Data set [2] has as its system ovariectomized (OVX) mice. Conditions: 20 mg/kg/day for 8 weeks; ref 11 (Lin et al.); cited from earlier work.
Description: as §3

In data set [3] the test system is BMMs stimulated with RANKL and M-CSF. The data set can be described thus: Bone resorption assay (Osteo Assay Surface plate). Type of data set: cell-based, C57BL/6J mice. On the procedure:
In brief, the hind limbs of C57BL/6J mice were used to isolate bone marrow cells and cultured in α-MEM containing 10% FBS and 1% penicillin-streptomycin for one day to generate BMMs as described previously; 25 ng/mL M-CSF (416-ML-010/CF, R&D Systems, Minneapolis, MN, USA) and 50 ng/mL RANKL (462-TR-010/CF, R&D Systems, Minneapolis, MN, USA) were used for the preparation of osteoclasts.
Assays for bone resorption were performed using Corning Osteo Assay Surface plate (Sigma-Aldrich, Hongkong, China). We analyzed bone resorption pits with a light microscope and quantified pits area using Image J software (NIH, Bethesda, MD, USA).

The nature of data set [4]: Hydroxyapatite (HA) binding assay. Conditions: 800 μM, 4 mM sodium phosphate, 150 mM sodium chloride, pH 7.4, 15 mg HA, 37 °C, 0-80 min, HPLC. On the procedure:
Acacetin-EMCH-D6 and acacetin were dissolved, respectively, in a buffer containing 4 mM sodium phosphate and 150 mM sodium chloride (pH = 7.4), to a final concentration of 800 μM; 15 mg of HA was added and incubated in a 37 °C water bath; 20 μL aliquots were taken after 0, 10, 20, 40, and 80 min and quantified by HPLC.

Data set [5] concerns BMMs stimulated with RANKL and M-CSF. Description: TRAP staining, osteoclast differentiation. The format is cell-based, C57BL/6J mice. Conditions: 7 days. On the procedure:
In brief, the hind limbs of C57BL/6J mice were used to isolate bone marrow cells and cultured in α-MEM containing 10% FBS and 1% penicillin-streptomycin for one day to generate BMMs as described previously; 25 ng/mL […] Systems, Minneapolis, MN, USA) and 50 ng/mL […] Systems, Minneapolis, MN, USA) were used for the preparation of osteoclasts. […] TRAP-positive multinucleated osteoclasts (≥3 nuclei) were counted using a TRAP kit (Zhejiang Zhuoteng Biological, Shaoxing, China) according to the manufacturer's instructions. BMMs were induced by RANKL (50 ng/mL) and M-CSF (25 ng/mL) in the presence of acacetin (25 μM) and rapamycin (50 nmol/L) for 7 days. TRAP-positive multinucleated osteoclasts (≥3 nuclei) were counted.

Data set [6] has as its system mRNA expression of TRAP, NFATc1, and CTSK. Description: RT-PCR of osteoclast genes. The format is cell-based, C57BL/6J mice. Conditions: BMMs, RANKL and M-CSF, 12.5, 25 μM, 3 days, n = 3. On the procedure:
The total RNA was extracted from cells or tissues using TRIzol reagent (Thermo Fisher Scientific, Waltham, MA, USA) according to the manufacturer’s instructions. PrimeScript^TM RT Master Mix (RR036Q, Takara, San Jose, CA, USA) was used to reverse transcribe 1 μg of total RNA extracted into complementary DNA (cDNA) for subsequent RT-PCR reactions using qTOWER real-time PCR thermal cycler (Analytik Jena, Jena, Germany).

The subject of a further data set is BMMs. The data set can be described thus: Cytotoxicity assay (CCK-8). The format is cell-based, C57BL/6J mice. The note with it: 48 h and 96 h, CCK-8, n = 6. On the procedure:
In brief, the hind limbs of C57BL/6J mice were used to isolate bone marrow cells and cultured in α-MEM containing 10% FBS and 1% penicillin-streptomycin for one day to generate BMMs as described previously; 25 ng/mL […] Systems, Minneapolis, MN, USA) and 50 ng/mL […] Systems, Minneapolis, MN, USA) were used for the preparation of osteoclasts. […] The medium was changed every 2 days. After 48 h and 96 h of culture, CCK8 reagent (10 μL/well, Dojindo, Kumamoto, Japan) was added to each well. Then, the cells were incubated in darkness at 37 °C for 2 h. The absorbance was recorded using a microplate reader (Thermo Fisher Scientific, Waltham, MA, USA) at 450 nm.

For the next data set, the system named is OVX mice. Description: OVX mouse model of osteoporosis. Type of data set: in vivo, C57BL/6J mice. The note with it: for anti-osteoporotic effects (OVX-induced bone loss; BMD and BV/TV, micro-CT of tibia): i.p. 5 mg/kg/3 day for 5 weeks.
The test system of the next data set is PI3K/AKT/mTOR pathway. The data set can be described thus: Western blotting, PI3K/AKT/mTOR phosphorylation. Conditions: BMMs, RANKL and M-CSF, acacetin 25 μM, 6 h, n = 3. Type of data set: cell-based, C57BL/6J mice. On the procedure:
as §1, §2

In another data set the test system is c-Fos and NFATc1. The data set can be described thus: Western blotting, c-Fos and NFATc1. Conditions: BMMs, RANKL and M-CSF, 3 days. Type of data set: cell-based, C57BL/6J mice. On the procedure: as §1, §2
The conditions of data set [7]: statement of the design section, reference not given; cited from earlier work. The source says: The next step is the identification of bone-targeting peptides. Bone tissue, as a special connective tissue, consists of a variety of cells and intercellular bone matrix, with high inorganic salt content which is mainly composed of HA. In recent years, more and more peptide sequences with excellent bone-targeting ability have been discovered. Compared with bone-targeting small molecules, these peptides have more specific mechanisms, high affinity and low side effects. Considering that acacetin has an excellent inhibitory effect on osteoclasts, we selected […] ...

Setting [8] is: i.p. 17.5 μmol/kg every 3 days for 5 weeks.
The mark [9] stands for this setting: i.p. 17.5 μmol/kg every 3 days for 5 weeks, n = 6.
Where [10] appears, read: acacetin 25 μM and rapamycin 50 nmol/L.
[11] abbreviates: Acacetin-EMCH-D6 17.5 μmol/kg and rapamycin 1 mg/kg i.p. every 3 days, 5 weeks, at least in part.
Where [12] appears, read: Acacetin-EMCH-D6 17.5 μmol/kg and rapamycin 1 mg/kg i.p. every 3 days, 5 weeks, proximal tibia.

Turning to `COc1ccc(-c2cc(=O)c3c(O)cc(O)cc3o2)cc1` [acacetin], the “RANKL+M-CSF-induced increase of LC3II protein levels” value in the data set with LC3II (acacetin 25 μM, n = 3) is listed as “reversed”. In addition, the terminal half-life in data set [1] is 1.48 h. Further, in [2], the “bone loss in ovariectomized (OVX) mice” value is recorded as “protected against bone loss”. Moreover, in [3] (RANKL 50 ng/mL and M-CSF 25 ng/mL, 12.5, 25 μM added for 3 days after immature osteoclasts formed, n = 3), the “area of bone resorption pits” value is on record as “significantly diminished”. The “binding to hydroxyapatite (HA)” value in [4] is on record as “very weak binding”. In addition, in data set [5] (RANKL 50 ng/mL and M-CSF 25 ng/mL, 12.5, 25 μM, n = 3), the “number of TRAP-positive osteoclasts (nuclei ≥ 3)” value is on record as “significantly diminished”. Moreover, in [6], the “mRNA expression of CTSK” value is given as “suppressed”, the “mRNA expression of NFATc1” value was “suppressed” and the “mRNA expression of TRAP” value is on record as “suppressed”. In the data set with BMMs (dose more than 50 μM), the cell viability entry was “reduced cell viability”. Moreover, the cell viability result in the data set with BMMs (dose of 6.25, 12.5, and 25 μM) is “did not affect cell viability”. Moreover, in the data set on OVX mice (setting [8]), the “BMD, proximal tibia and L5 vertebra (micro-CT), OVX-induced change” value is “no significant effect”; the “BV/TV, proximal tibia and L5 vertebra (micro-CT), OVX-induced change” value is listed as “no significant effect”; the “Tb.N, proximal tibia and L5 vertebra (micro-CT), OVX-induced change” value is listed as “no significant effect”; the “Tb.Sp, proximal tibia and L5 vertebra (micro-CT), OVX-induced change” value is recorded as “no significant effect”. In the data set on OVX mice (setting [8]), the “number of TRAP-positive cells, proximal tibia (OVX-induced increase)” value was “did not affect the histological changes”. Besides, in the data set on OVX mice (setting [9]), the “plasma CTX-1 levels” value is “no significant effect”; the “trabecular density and thickness, proximal tibia (H&E staining)” value is listed as “did not affect the histological changes”. In addition, the “anti-osteoporotic effects (OVX-induced bone loss; BMD and BV/TV, micro-CT of tibia)” value with OVX mice (n = 6, Figure S1, 5 mg/kg) is recorded as “did not observe its anti-osteoporotic effects”. Further, in the data set on OVX mice (n = 6, Figure S1, listed as Acacetin, 5 mg/kg), the “anti-osteoporotic effects (OVX-induced bone loss; BMD and BV/TV, micro-CT of tibia)” value is listed as “no effect on OVX-induced bone loss”. For the same compound, in the data set on PI3K/AKT/mTOR pathway, the “RANKL+M-CSF-induced reduction of AKT phosphorylation” value is given as “reversed”, the “RANKL+M-CSF-induced reduction of PI3K phosphorylation” value is “reversed” and the “RANKL+M-CSF-induced reduction of mTOR phosphorylation” value is recorded as “reversed”. In addition, in the data set with c-Fos and NFATc1 (acacetin 25 μM), the “protein expression of NFATc1” value is reported as “downregulated” and the “protein expression of c-Fos” value is listed as “downregulated”.
As to `CO[C@H]1C[C@@H]2CC[C@@H](C)[C@@](O)(O2)C(=O)C(=O)N2CCCC[C@H]2C(=O)O[C@H]([C@H](C)C[C@@H]2CC[C@@H](O)[C@H](OC)C2)CC(=O)[C@H](C)/C=C(\C)[C@@H](O)[C@@H](OC)C(=O)[C@H](C)C[C@H](C)/C=C/C=C/C=C/1C` [rapamycin], the “effect of rapamycin co-treatment on inhibition of LC3II protein levels by acacetin” value in the data set on LC3II (setting [10]) was “abolished”. The “effect of rapamycin co-treatment on inhibition of bone resorption by acacetin” value in data set [3] (RANKL and M-CSF, acacetin 25 μM and rapamycin 50 nmol/L, 3 days) is reported as “partly reversed”. Besides, the “effect of rapamycin co-treatment on inhibition of osteoclast differentiation by acacetin (TRAP assay)” value in [5] (RANKL and M-CSF, acacetin 25 μM and rapamycin 50 nmol/L) was “partly reversed”. For the same compound, in the data set on OVX mice (setting [11]), the “effect of rapamycin co-treatment on BMD augmentation by Acacetin-EMCH-D6” value is given as “reversed”, the “effect of rapamycin co-treatment on BV/TV augmentation by Acacetin-EMCH-D6” value is on record as “reversed”, the “effect of rapamycin co-treatment on Tb.N augmentation by Acacetin-EMCH-D6” value was “reversed” and the “effect of rapamycin co-treatment on Tb.Sp reduction by Acacetin-EMCH-D6” value is given as “reversed”. Moreover, in the data set with OVX mice (setting [12]), the “effect of rapamycin co-treatment on reduction of LC3 dots by Acacetin-EMCH-D6” value is given as “partly reversed” and the “effect of rapamycin co-treatment on reduction of TRAP-positive osteoclasts by Acacetin-EMCH-D6” value is on record as “partly reversed”. Further, in the data set with c-Fos and NFATc1 (setting [10]), the “effect of rapamycin co-treatment on downregulation of NFATc1 protein by acacetin” value is listed as “partially reversed” and the “effect of rapamycin co-treatment on downregulation of c-Fos protein by acacetin” value is reported as “partially reversed”.
Consider “DDDDDD [D6, medium-length polyaspartic acid, bone targeting peptide]”, for which, in [7], the HA affinity result was “comparable to tetracycline and calcein”.
